Source: patent publication USRE39062E1, “INGAP protein involved in pancreatic islet neogenesis” (McGill Unviersity, priority 1995, dated 2006)

Tests used:
Type in all cases: cell-based
[1] = test system: hamster insulinoma cell line; test: Growth and proliferation of a hamster insulinoma cell line
[2] = test system: pancreatic ductal cells; test: Stimulation of pancreatic ductal cells to grow and proliferate
[3] = test system: rat tumor duct cell line; test: Growth and proliferation of a rat tumor duct cell line
[4] = test system: rat insulinoma cell line; test: Growth and proliferation of a rat insulinoma cell line
[5] = test system: hamster duct cell line; test: Growth and proliferation of a hamster duct cell line
[6] = test system: hamster insulinoma tumor cells (HIT); test: 3H-thymidine incorporation into hamster insulinoma tumor cells (HIT), control cell line; details: HIT control cell line in Ham's F-12K media, 24 hrs, TCA precipitation
Method: (§1) The same synthetic peptide was tested for its ability to stimulate ^3H-thymidine incorporation into rat pancreatic tumor duct cells (ARIP) and hamster insulinoma tumor cells (HIT). 10 μCi of ^3H-thymidine at 80.4 Ci/mmole concentration was added to approximate 10^6 cells cultured in Ham's F-12K media. After 24 hrs, the cells were harvested and solubilized. Differential precipitation of the nucleic acids with trichloroacetic acid (TCA) was performed according to the procedure modified by Rosenberg et al. and the ^3H-thymidine proportion incorporated was calculated. […] The synthetic peptide had no effect on the control cell line HIT.

[7] = test system: rat pancreatic tumor duct cells (ARIP); test: 3H-thymidine incorporation into rat pancreatic tumor duct cells (ARIP); details: ARIP cells in Ham's F-12K media, 24 hrs, TCA precipitation
Method: as §1

| Substance | stimulation of growth and proliferation [1] | stimulation of growth and proliferation [2] | stimulation of growth and proliferation [3] | stimulation of growth and proliferation [4] | stimulation of growth and proliferation [5] | effect on 3H-thymidine incorporation [6] | increase in 3H-thymidine incorporation comparing to the absence of the synthetic peptide [7] [fold] |
| --- | --- | --- | --- | --- | --- | --- | --- |
| fragment of 20 amino acids of the sequence of SEQ ID NO: 2, from amino acid #103-#122: fragment of 20 amino acids of INGAP, SEQ ID NO: 2, amino acids #103-#122 (IGLHDPSHGTLPNGSGWKWS) | effect has been seen | sufficient to stimulate pancreatic ductal cells to grow and proliferate | effect has been seen | effect has been seen | effect has been seen |  |  |
| synthetic peptide: synthetic peptide corresponding to amino acids 104-118 in SEQ ID NO:2 of the deduced hamster INGAP protein (GLHDPSHGTLPNGSG) |  |  |  |  |  | no effect | 2.4 |
